From patent publication US8309138B2, “Pharmaceutical composition comprising microparticle oily suspension” (ASKA Pharmaceutical Co., Ltd., priority 2007, dated 2012)

Experiment: Solubility of the compound of formula (i)
Assay type: physicochemical
Description: Solubility of this compound is 1.09 μg/mL in Solution 1 (pH 1.2) defined in the Japanese Pharmacopoeia at 37° C., 0.88 μg/mL in Solution 2 (pH 6.8) defined in the Japanese Pharmacopoeia at 37° C., 0.53 μg/mL in a phosphate buffer (pH 7.2) at 37° C., and about 2 mg/mL in Panasate at room temperature.

## O=C(Cc1c(F)cccc1Cl)Nc1onc(-c2ccc(F)cc2)c1-c1ccncn1 [formula (i)]
Solution 1 defined in the Japanese Pharmacopoeia, simulated gastric fluid, Solution 1 (pH 1.2) defined in the Japanese Pharmacopoeia at 37° C.
  solubility: 1.09 µg/mL
Solution 2 defined in the Japanese Pharmacopoeia, aqueous buffer, Solution 2 (pH 6.8) defined in the Japanese Pharmacopoeia at 37° C.
  solubility: 0.88 µg/mL
Aqueous buffer, phosphate buffer (pH 7.2) at 37° C.
  solubility: 0.53 µg/mL
Oil or lipid, in Panasate at room temperature
  solubility: ~2000 µg/mL
